# Reference: patent publication US9242993B2, “Morpholino substituted bicyclic pyrimidine urea or carbamate derivatives as mTOR inhibitors” (CELLZOME LIMITED, priority 2011, dated 2016)
# Assays:
# [1] = system: S6RP serine-240/244 phosphorylation; assay: In vitro phospho-S6 cellular assay; format: cell-based; settings: Homo sapiens; HEK293T/17 cells, 2 hours; read-out: pS6 inhibition value (IC50), activity level
# Excerpt: Activation of mTOR signaling results in phosphorylation of several downstream targets. In cells, mTOR exists in two different protein complexes. The mTOR Complex-1 (mTORC1) phosphorylates and activates S6 Kinase 1 (S6K1) and S6 Kinase 2 (S6K2) (also known as p70S6K) which then phosphorylate S6 Ribosomal Protein (S6RP) (also known as RPS6)3. S6RP is phosphorylated on serine 235, serine 236, serine 240 and serine 244 by both pS6K1 and pS6K2. The mTOR Complex-2 (mTORC2) phosphorylates AKT on serine 473 which activates the AKT signaling pathway.
# The assay measures a test compound's inhibition of S6RP serine-240/244 phosphorylation and inhibition of Akt serine-473 phosphorylation in human embryonic kidney derived HEK293T/17 cells (ATCC CRL-11268).
# The HEK293T/17 cell line is maintained in DMEM media (Invitrogen catalogue number 41965-039) supplemented with 10% FCS at 37° C. in a 5% CO2 humidified incubator.
# Cells are seeded in 96-well plates at 40,000 cells/well (pS6RP S240/244 assay) or 80,000 cells/well (pAkt S473 assay) in 90 μl growth media (DMEM, 2% FCS). Plates are incubated for 1 hour in a humidified incubator to allow the cells to adhere. Cells are treated with 8 concentrations of test compounds or DMSO alone for controls (final DMSO concentration 0.1%) and incubated at 37° C. for 2 hours. Then 20 μl of 5× concentrated lysis buffer (750 mM NaCl, 100 mM Tris pH7.4, 5 mM ADTA, 5 mM EGTA, 5% Triton X-100) is added, plates are sealed and incubated for 15 minutes at 4° C. with gentle shaking. After cell lysis, 25 μl cell lysate is transferred to a MesoScale plate coated with an antibody to pS6RP Ser240/244 (MesoScale Discovery K150DGD-3) or an antibody to pAkt Ser 473 (MesoScale Discovery K151DGD-3). Plates have been blocked before by incubation with 150 μl MesoScale Discovery Blocking Solution-A for 1 hour at room temperature followed by washing with 150 μl 1× Tris wash buffer per well. After the transfer of the cell lysate to the MSD plate, the pS6RP (or pAkt) protein is captured on the coated antibody by incubation at room temperature for 1 hour with gentle shaking. After the capture step the plate is washed three times with 150 μl of 1× Tris wash buffer per well. Then 25 μl detection antibody conjugated with a Sulfo-Tag is added and incubated for 1 hour at room temperature with gentle shaking. Subsequently the antibody solution is removed and the plate is washed 3 times with 150 μl 1× Tris wash buffer per well and 150 μl Read buffer is added. The plates are analysed on a MSD 2400 Plate Reader (MesoScale Discovery). Data analysis is performed using nonlinear regression for a sigmoidal dose-response with a variable slope.
# mTOR = mTOR (Homo sapiens, UniProt P42345); assay: biochemical
# [2] = system: IFNγ release in whole blood; assay: In vitro human whole blood assay (IFNγ release); format: cell-based; settings: αCD3/αCD28 and IL-2 stimulation, 18 hours, read-out: WB inhibition value (pIC50) (converted)
# Experimental: This assay measures IFNγ release in whole blood after αCD3/αCD28 and IL-2 treatment. The whole blood contains circulating T lymphocytes; αCD3/αCD28 stimulation mimics antigen receptor signalling, resulting in epigenetic changes to the IFNG gene locus, such that when IL-2 is added, IFNγ is produced.
# Human whole blood, with Na-heparin as the anticoagulant, is obtained from Clinical Trials Laboratory Services. Blood is diluted 1.4 times with RPMI 1640 (Lonza, BE12-167F) and 175 μl/well is distributed in a low evaporation 96-well plates (Falcon, BD Labware, 353072). Blood is treated with 10 concentrations of test compounds or DMSO alone for controls (final DMSO concentration 0.2%) and incubated at 37° C. for 1 hour. Blood is then stimulated with 1 μg/ml αCD3 (R&D Systems, MAB100), 1 μg/ml αCD28 (BD Pharmingen, 555725) and IL-2 at 10 ng/ml (Peprotech, 200-02). Blood is then left to incubate at 37° C. for 18 hours. After, plates are spun at 250 g for 5 minutes to pellet blood cells and 25 μl of plasma is transferred to a MesoScale plate coated with an antibody to IFNγ (MesoScale Discovery K151AEC-2) containing 25 μl/well MesoScale Discovery Blocking Solution-2. Plates have been blocked by incubating with 25 μl/well MesoScale Discovery Blocking Solution-2 for 30 minutes at room temperature. After the transfer of sera to the MSD plate, the IFNγ protein is captured on the coated antibody by incubation at room temperature for 2 hour with gentle shaking. After the capture step the plate is washed three times with 150 μl/well of 1×PBS-Tween wash buffer and 25 μl/well detection antibody conjugated with a Sulfo-Tag is added and incubated for 2 hours at room temperature with gentle shaking. Subsequently the antibody solution is removed and the plate is washed 3 times with 150 μl/well 1×PBS-Tween wash buffer and 150 μl/well MesoScale Discovery Read buffer is added. The plates are analysed on a MSD 2400 Plate Reader (MesoScale Discovery). Data analysis is performed using nonlinear regression for a sigmoidal dose-response with a variable slope.
# [3] = target: DNA-dependent protein kinase (DNA-PK) (Homo sapiens, UniProt P78527); assay: biochemical
# DNA-dependent protein kinase (DNA-PK), sequence (P78527 whole entry): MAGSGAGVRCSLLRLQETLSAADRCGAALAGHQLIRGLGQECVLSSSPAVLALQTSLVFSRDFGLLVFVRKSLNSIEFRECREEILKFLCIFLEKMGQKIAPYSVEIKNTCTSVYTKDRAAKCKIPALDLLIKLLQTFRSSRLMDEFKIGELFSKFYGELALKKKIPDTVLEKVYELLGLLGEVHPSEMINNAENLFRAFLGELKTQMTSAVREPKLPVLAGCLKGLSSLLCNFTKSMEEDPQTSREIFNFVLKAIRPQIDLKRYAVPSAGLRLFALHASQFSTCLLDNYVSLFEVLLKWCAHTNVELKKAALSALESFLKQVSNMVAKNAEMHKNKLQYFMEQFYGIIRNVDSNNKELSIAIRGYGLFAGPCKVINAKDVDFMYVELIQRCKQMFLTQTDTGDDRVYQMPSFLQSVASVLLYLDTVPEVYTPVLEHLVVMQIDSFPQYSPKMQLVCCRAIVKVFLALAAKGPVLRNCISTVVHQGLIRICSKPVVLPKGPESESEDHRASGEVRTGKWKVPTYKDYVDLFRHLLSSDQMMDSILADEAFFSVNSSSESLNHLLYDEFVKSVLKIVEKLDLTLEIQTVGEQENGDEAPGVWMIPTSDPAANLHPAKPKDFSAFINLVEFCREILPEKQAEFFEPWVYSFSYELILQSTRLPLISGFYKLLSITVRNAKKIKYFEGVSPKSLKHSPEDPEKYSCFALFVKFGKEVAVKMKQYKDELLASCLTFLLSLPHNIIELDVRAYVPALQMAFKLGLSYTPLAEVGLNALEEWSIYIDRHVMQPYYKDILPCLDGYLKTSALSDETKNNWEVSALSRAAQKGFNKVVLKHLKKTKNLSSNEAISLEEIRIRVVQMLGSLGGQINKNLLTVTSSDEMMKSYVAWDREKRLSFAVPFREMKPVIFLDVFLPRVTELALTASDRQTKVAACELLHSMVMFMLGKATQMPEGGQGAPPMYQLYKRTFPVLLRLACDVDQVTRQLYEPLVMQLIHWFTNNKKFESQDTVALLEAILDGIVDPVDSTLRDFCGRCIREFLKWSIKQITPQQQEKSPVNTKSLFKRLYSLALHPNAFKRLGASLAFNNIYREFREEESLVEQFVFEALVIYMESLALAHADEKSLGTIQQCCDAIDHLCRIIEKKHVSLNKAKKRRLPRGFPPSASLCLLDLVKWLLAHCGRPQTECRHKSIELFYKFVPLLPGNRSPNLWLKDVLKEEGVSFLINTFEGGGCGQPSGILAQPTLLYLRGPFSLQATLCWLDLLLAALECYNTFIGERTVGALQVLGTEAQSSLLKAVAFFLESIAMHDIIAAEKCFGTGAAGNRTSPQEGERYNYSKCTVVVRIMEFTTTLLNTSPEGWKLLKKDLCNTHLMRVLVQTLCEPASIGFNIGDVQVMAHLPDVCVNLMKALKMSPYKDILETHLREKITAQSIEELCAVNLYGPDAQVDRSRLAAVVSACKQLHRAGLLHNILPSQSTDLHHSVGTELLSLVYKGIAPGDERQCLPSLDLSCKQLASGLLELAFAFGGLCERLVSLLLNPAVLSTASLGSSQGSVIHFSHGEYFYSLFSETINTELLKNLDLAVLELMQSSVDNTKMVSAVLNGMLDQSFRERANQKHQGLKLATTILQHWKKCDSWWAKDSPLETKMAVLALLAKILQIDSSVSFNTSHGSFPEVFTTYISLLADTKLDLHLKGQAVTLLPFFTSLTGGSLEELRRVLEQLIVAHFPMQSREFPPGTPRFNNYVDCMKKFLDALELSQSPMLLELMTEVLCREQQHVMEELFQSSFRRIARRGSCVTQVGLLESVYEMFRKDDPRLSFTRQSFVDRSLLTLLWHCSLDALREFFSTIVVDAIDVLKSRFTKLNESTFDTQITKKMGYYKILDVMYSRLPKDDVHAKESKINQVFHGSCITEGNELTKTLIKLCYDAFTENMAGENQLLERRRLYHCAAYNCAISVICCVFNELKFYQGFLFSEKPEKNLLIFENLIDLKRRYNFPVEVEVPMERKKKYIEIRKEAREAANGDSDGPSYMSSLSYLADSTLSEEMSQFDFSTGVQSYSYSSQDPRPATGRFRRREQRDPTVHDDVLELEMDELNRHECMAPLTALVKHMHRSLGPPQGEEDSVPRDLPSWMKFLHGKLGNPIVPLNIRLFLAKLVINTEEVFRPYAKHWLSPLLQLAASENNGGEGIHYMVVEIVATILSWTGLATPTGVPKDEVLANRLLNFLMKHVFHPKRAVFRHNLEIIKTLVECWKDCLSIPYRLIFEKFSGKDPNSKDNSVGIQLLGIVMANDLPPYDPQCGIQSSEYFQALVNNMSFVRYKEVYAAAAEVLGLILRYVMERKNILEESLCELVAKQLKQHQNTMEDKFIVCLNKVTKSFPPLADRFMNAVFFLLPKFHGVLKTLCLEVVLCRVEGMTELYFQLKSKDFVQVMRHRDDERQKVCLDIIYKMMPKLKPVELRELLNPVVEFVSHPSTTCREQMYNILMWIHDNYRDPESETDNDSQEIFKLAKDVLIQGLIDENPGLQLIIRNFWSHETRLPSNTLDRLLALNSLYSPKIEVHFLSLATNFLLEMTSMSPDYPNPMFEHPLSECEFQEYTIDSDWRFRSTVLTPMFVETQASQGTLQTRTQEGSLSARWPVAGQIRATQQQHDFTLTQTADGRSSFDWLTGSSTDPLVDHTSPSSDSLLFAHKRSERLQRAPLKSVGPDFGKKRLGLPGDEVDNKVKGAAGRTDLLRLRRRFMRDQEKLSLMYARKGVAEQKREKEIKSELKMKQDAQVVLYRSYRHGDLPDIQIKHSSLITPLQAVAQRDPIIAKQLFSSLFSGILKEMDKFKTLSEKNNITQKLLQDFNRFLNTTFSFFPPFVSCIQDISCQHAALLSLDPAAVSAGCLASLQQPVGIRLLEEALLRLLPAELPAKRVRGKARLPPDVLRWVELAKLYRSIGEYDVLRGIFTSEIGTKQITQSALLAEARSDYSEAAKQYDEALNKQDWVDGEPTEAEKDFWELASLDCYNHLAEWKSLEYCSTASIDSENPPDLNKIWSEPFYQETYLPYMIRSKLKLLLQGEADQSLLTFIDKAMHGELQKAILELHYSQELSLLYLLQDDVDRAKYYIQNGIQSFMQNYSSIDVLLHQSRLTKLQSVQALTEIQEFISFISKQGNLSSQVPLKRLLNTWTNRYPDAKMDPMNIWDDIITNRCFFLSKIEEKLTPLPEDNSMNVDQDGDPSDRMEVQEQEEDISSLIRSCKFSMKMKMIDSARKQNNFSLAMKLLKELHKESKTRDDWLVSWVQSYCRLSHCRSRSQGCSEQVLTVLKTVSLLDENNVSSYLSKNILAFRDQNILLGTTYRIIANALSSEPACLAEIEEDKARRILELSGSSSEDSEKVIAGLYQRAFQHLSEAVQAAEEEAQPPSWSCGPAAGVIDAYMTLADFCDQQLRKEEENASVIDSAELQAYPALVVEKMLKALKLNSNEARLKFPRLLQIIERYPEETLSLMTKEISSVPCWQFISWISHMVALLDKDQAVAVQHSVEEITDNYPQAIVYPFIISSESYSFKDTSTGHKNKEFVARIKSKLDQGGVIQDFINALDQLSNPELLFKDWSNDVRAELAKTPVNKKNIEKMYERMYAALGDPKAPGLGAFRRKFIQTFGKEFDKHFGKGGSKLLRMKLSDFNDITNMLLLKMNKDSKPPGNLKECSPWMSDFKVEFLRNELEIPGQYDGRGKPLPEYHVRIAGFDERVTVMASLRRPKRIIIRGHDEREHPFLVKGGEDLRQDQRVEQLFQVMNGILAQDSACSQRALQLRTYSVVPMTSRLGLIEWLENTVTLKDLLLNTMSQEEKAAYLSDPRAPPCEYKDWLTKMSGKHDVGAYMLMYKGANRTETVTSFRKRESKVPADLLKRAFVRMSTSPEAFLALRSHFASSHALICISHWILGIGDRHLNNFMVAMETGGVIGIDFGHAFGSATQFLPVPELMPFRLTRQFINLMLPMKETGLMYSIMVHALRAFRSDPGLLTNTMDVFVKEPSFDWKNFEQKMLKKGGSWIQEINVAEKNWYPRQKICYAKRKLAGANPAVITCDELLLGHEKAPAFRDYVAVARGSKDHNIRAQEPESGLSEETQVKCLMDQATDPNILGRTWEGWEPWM
Compound,IC50 [1] [nM],IC50 (mTOR) [nM],IC50 [2] [nM],IC50 [3] [nM]
"CCNC(=O)Nc1ccc(-c2nc3c(c(N4CCOC[C@@H]4C)n2)[C@@H](C)S(=O)(=O)C3)cc1 [Example 39, 1-ethyl-3-(4-((R)-5-methyl-4-((S)-3-methylmorpholino)-6,6-dioxido-5,7-dihydrothieno[3,4-d]pyrimidin-2-yl)phenyl)urea]",< 100,< 100,100,–
"CC1c2nc(-c3ccc(NC(=O)NC4CC4)cc3)nc(N3CCOC[C@@H]3C)c2C(C)S1(=O)=O (stereo partly drawn) [Example 44, 1-cyclopropyl-3-(4-(5,7-dimethyl-4-((S)-3-methylmorpholino)-6,6-dioxido-5,7-dihydrothieno[3,4-d]pyrimidin-2-yl)phenyl)urea]",< 100,< 100,39.8,–
"CC[C@H]1COCCN1c1nc(-c2ccc(NC(=O)NC)cc2F)nc2c1C(C)S(=O)(=O)C2(C)C (stereo partly drawn) [Example 79, 1-(4-(4-((S)-3-ethylmorpholino)-5,7,7-trimethyl-6,6-dioxido-5,7-dihydrothieno[3,4-d]pyrimidin-2-yl)-3-fluorophenyl)-3-methylurea]",< 100,< 100,631,–
"O=C(Nc1ccc(-c2nc3c(c(N4C5CCC4COC5)n2)CS(=O)(=O)C3)cc1)NC1CC1 [Example 26, 1-(4-(4-(3-oxa-8-azabicyclo[3.2.1]octan-8-yl)-6,6-dioxido-5,7-dihydrothieno[3,4-d]pyrimidin-2-yl)phenyl)-3-cyclopropylurea]",< 100,< 100,–,> 10000
"CCNC(=O)Nc1ccc(-c2nc3c(c(N4CCOC[C@@H]4C)n2)C(C)S(=O)(=O)C3)cc1F (stereo partly drawn) [Example 50, 1-ethyl-3-(2-fluoro-4-(5-methyl-4-((S)-3-methylmorpholino)-6,6-dioxido-5,7-dihydrothieno[3,4-d]pyrimidin-2-yl)phenyl)urea]",< 100,< 100,1000,–
"C[C@@H]1COCCN1c1nc(-c2ccc(NC(=O)NC3CC3)cc2)nc2c1[C@H](C)S(=O)(=O)C2 [Example 63, 1-cyclopropyl-3-(4-((S)-5-methyl-4-((R)-3-methylmorpholino)-6,6-dioxido-5,7-dihydrothieno[3,4-d]pyrimidin-2-yl)phenyl)urea]",< 100,100 to 1000,251,–
"CC1c2c(nc(-c3ccc(NC(=O)NC4CC4)cc3)nc2N2CCOCC2)CS1(=O)=O (stereo not drawn) [Example 31, 1-cyclopropyl-3-(4-(5-methyl-4-morpholino-6,6-dioxido-5,7-dihydrothieno[3,4-d]pyrimidin-2-yl)phenyl)urea]",< 100,100 to 1000,–,> 10000
"CCNC(=O)Nc1ccc(-c2nc3c(c(N4CCOC[C@@H]4C)n2)[C@H](C)S(=O)(=O)C3)cc1 [Example 40, 1-ethyl-3-(4-((S)-5-methyl-4-((S)-3-methylmorpholino)-6,6-dioxido-5,7-dihydrothieno[3,4-d]pyrimidin-2-yl)phenyl)urea]",< 100,< 100,200,–
"O=C(NCCCF)Nc1ccc(-c2nc3c(c(N4CC5CCC(C4)O5)n2)CS(=O)(=O)C3)cc1 [Example 29, 1-(4-(4-(8-oxa-3-azabicyclo[3.2.1]octan-3-yl)-6,6-dioxido-5,7-dihydrothieno[3,4-d]pyrimidin-2-yl)phenyl)-3-(3-fluoropropyl)urea]",100 to 1000,100 to 1000,–,> 10000
"O=C(NCCO)Nc1ccc(-c2nc3c(c(N4CC5CCC(C4)O5)n2)CS(=O)(=O)C3)cc1 [Example 16, 1-(4-(4-(8-oxa-3-azabicyclo[3.2.1]octan-3-yl)-6,6-dioxido-5,7-dihydrothieno[3,4-d]pyrimidin-2-yl)phenyl)-3-(2-hydroxyethyl)urea]",1000 to 10000,< 100,–,> 10000
"CNC(=O)Nc1ccc(-c2nc3c(c(N4CCOC[C@@H]4C)n2)CS(=O)(=O)C3)cc1 [Example 12, (S)-1-methyl-3-(4-(4-(3-methylmorpholino)-6,6-dioxido-5,7-dihydrothieno[3,4-d]pyrimidin-2-yl)phenyl)urea]",100 to 1000,< 100,–,> 10000
"CCC1COCCN1c1nc(-c2ccc(NC(=O)NC3CC3)cc2)nc2c1C(C)S(=O)(=O)C2 (stereo not drawn) [Example 32, 1-cyclopropyl-3-(4-(4-(3-ethylmorpholino)-5-methyl-6,6-dioxido-5,7-dihydrothieno[3,4-d]pyrimidin-2-yl)phenyl)urea]",< 100,< 100,–,> 10000
"O=C(Nc1ccc(-c2nc3c(c(N4CCOCC4)n2)CS(=O)(=O)C3)cc1)NC1CC1 [Example 18, 1-cyclopropyl-3-(4-(4-morpholino-6,6-dioxido-5,7-dihydrothieno[3,4-d]pyrimidin-2-yl)phenyl)urea]",100 to 1000,< 100,–,> 10000
"CNC(=O)Nc1ccc(-c2nc(N3CCOC[C@@H]3C)c3c(n2)C(C)(C)S(=O)(=O)C3)cc1F [Example 65, (S)-1-(4-(7,7-dimethyl-4-(3-methylmorpholino)-6,6-dioxido-5,7-dihydrothieno[3,4-d]pyrimidin-2-yl)-2-fluorophenyl)-3-methylurea]",< 100,100 to 1000,–,> 10000
"O=C(NCCF)Nc1ccc(-c2nc3c(c(N4CC5CCC(C4)O5)n2)CS(=O)(=O)C3)cc1 [Example 22, 1-(4-(4-(8-oxa-3-azabicyclo[3.2.1]octan-3-yl)-6,6-dioxido-5,7-dihydrothieno[3,4-d]pyrimidin-2-yl)phenyl)-3-(2-fluoroethyl)urea]",100 to 1000,< 100,–,> 10000
"C[C@H]1COCCN1c1nc(-c2ccc(NC(=O)NCCF)cc2)nc2c1CS(=O)(=O)C2 [Example 14, (S)-1-(2-fluoroethyl)-3-(4-(4-(3-methylmorpholino)-6,6-dioxido-5,7-dihydrothieno[3,4-d]pyrimidin-2-yl)phenyl)urea]",100 to 1000,< 100,–,> 3000
"C[C@H]1COCCN1c1nc(-c2ccc(NC(=O)Nc3ccncc3)cc2)nc2c1CS(=O)(=O)C2 [Example 35, (S)-1-(4-(4-(3-methylmorpholino)-6,6-dioxido-5,7-dihydrothieno[3,4-d]pyrimidin-2-yl)phenyl)-3-(pyridin-4-yl)urea]",< 100,< 100,–,> 10000
